This note sets out measurements from patent US6730680B2 (priority 1999, dated 2004).

Values after ≈ are worked out from the molar mass of the structure shown.

One data set has as its system Pyricularia oryzae. Kind of data set: microbe, parasite or virus in culture. Format: cell-based. Conditions: read-out: MIC (Minimum Inhibitory Concentration).

For `Fc1cc(F)c(-c2c(Cl)nc3ccnn3c2NCC(F)(F)F)c(F)c1` [Example I-7, [5-chloro-6-(2,4,6-trifluoro-phenyl)-pyrazolo[1,5-α]pyrimidin-7-yl]-(2,2,2-trifluoro-ethyl)-amine], the MIC in the data set with Pyricularia oryzae worked out at 0.78 µg/mL (≈ 2.05 µM). By melting point is commonly meant the temperature, or range, at which the solid turns liquid. Compound `CCN(CC)c1c(-c2c(F)cc(F)cc2F)c(Cl)nc2ccnn12` had a melting point of 90 °C. Same read-out and setting: for `CC(C)Nc1c(-c2c(F)cc(F)cc2F)c(Cl)nc2ccnn12` the value was 143 °C; for `CC(C)N(C)c1c(-c2c(F)cc(F)cc2F)c(Cl)nc2ccnn12`, 109 °C. On to `Fc1cc(F)c(-c2c(Cl)nc3ccnn3c2NC2CCCC2)c(F)c1`, for which the melting point was 128 °C.
